Experiment [1] relates to infected PBMCs (VSV-G pseudotyped HIV virus). Briefly: cells. It is filed as cell-based, human. Particulars: Homo sapiens, PBMC, read-out: SMACK EC50_50% NHS.
The next experiment in a line: Viking EC50, 50% NHS. Type of experiment: cell-based. Particulars: method not described, read-out: Viking EC50_50% NHS.

Consider `Cc1c(C#N)cc(C(F)F)cc1Oc1c(C(F)(F)C(F)(F)F)ncn(Cc2ccc[nH]c2=O)c1=O` [Example 23, 5-(Difluoromethyl)-2-Methyl-3-((6-Oxo-1-((2-Oxo-1,2-Dihydropyridin-3-Yl)Methyl)-4-(Perfluoroethyl)-1,6-Dihydropyrimidin-5-Yl)Oxy)Benzonitrile], for which the EC50 in experiment [1] is 0.234 µM; in “Viking EC50, 50% NHS”, 0.053 µM.
In the case of `Cc1cc(C#N)c(C)c(Oc2c(C(F)(F)C(F)F)ncn(Cc3c(C)cc(C)[nH]c3=O)c2=O)c1` [Example 24, 3-((1-((4,6-Dimethyl-2-Oxo-1,2-Dihydropyridin-3-Yl)Methyl)-6-Oxo-4-(1,1,2,2-Tetrafluoroethyl)-1,6-Dihydropyrimidin-5-Yl)Oxy)-2,5-Dimethylbenzonitrile], the EC50 is 0.347 µM in experiment [1] and 0.168 µM in “Viking EC50, 50% NHS”.
`Cc1c(C#N)cc(C(F)F)cc1Oc1c(C(F)(F)C(F)F)ncn(Cc2ccc(CO)[nH]c2=O)c1=O` [Example 25, 5-(Difluoromethyl)-3-((1-((6-(Hydroxymethyl)-2-Oxo-1,2-Dihydropyridin-3-Yl)Methyl)-6-Oxo-4-(1,1,2,2-Tetrafluoroethyl)-1,6-Dihydropyrimidin-5-Yl)Oxy)-2-Methylbenzonitrile]: the EC50 in experiment [1] was found to be 0.0727 µM; in “Viking EC50, 50% NHS”, 0.0196 µM.
The corresponding values for `COCc1ccc(Cn2cnc(C(F)(F)C(F)F)c(Oc3cc(C(F)F)cc(C#N)c3C)c2=O)c(=O)[nH]1` [Example 26, 5-(difluoromethyl)-3-((1-((6-(methoxymethyl)-2-oxo-1,2-dihydropyridin-3-yl)methyl)-6-oxo-4-(1,1,2,2-tetrafluoroethyl)-1,6-dihydropyrimidin-5-yl)oxy)-2-methylbenzonitrile] are 0.0901 µM and 0.0293 µM.
For `Cc1c(C#N)cc(C(F)F)cc1Oc1c(C(F)(F)C(F)F)ncn(Cc2ccc(-c3cn[nH]c3)[nH]c2=O)c1=O` [Example 27, 5-(difluoromethyl)-3-((1-((2-hydroxy-6-(1H-pyrazol-4-yl)pyridin-3-yl)methyl)-6-oxo-4-(1,1,2,2-tetrafluoroethyl)-1,6-dihydropyrimidin-5-yl)oxy)-2-methylbenzonitrile], the EC50 in experiment [1] was determined as 0.292 µM; in “Viking EC50, 50% NHS”, 0.0772 µM.
As to `Cc1c(C#N)cc(C(F)F)cc1Oc1c(C(F)(F)C(F)F)ncn(Cc2ccc(C(C)(C)O)[nH]c2=O)c1=O` [Example 29, 5-(Difluoromethyl)-3-((1-((6-(2-Hydroxypropan-2-Yl)-2-Oxo-1,2-Dihydropyridin-3-Yl)Methyl)-6-Oxo-4-(1,1,2,2-Tetrafluoroethyl)-1,6-Dihydropyrimidin-5-Yl)Oxy)-2-Methylbenzonitrile], the EC50 in experiment [1] stood at 0.187 µM; in “Viking EC50, 50% NHS”, 0.0298 µM.
As for `N#Cc1cc(Cl)cc(Oc2c(C(F)(F)F)ncn(Cc3ccc(-c4cn[nH]c4)[nH]c3=O)c2=O)c1` [Example 30, 3-Chloro-5-((6-Oxo-1-((2-Oxo-6-(1H-Pyrazol-4-Yl)-1,2-Dihydropyridin-3-Yl)Methyl)-4-(Trifluoromethyl)-1,6-Dihydropyrimidin-5-Yl)Oxy)Benzonitrile], the EC50 in experiment [1] was determined as 0.415 µM; in the experiment “Viking EC50, 50% NHS”, 0.0301 µM.
In the case of `N#Cc1cc(Cl)cc(Oc2c(C(F)(F)C(F)F)ncn(Cc3ccc(CO)[nH]c3=O)c2=O)c1F` [Example 31, 5-Chloro-2-Fluoro-3-((1-((6-(Hydroxymethyl)-2-Oxo-1,2-Dihydropyridin-3-Yl)Methyl)-6-Oxo-4-(1,1,2,2-Tetrafluoroethyl)-1,6-Dihydropyrimidin-5-Yl)Oxy)Benzonitrile], the EC50 came out at 0.0868 µM in experiment [1] and 0.0207 µM in the experiment “Viking EC50, 50% NHS”.
Consider `N#Cc1cc(Oc2c(C(F)(F)F)ncn(Cc3cc(F)c[nH]c3=O)c2=O)cc(C(F)F)c1` [Example 35], for which the EC50 in experiment [1] is 0.314 µM; in “Viking EC50, 50% NHS” it was 0.0156 µM.
As for `N#Cc1cc(Cl)cc(Oc2c(C(F)(F)F)ncn(Cc3cc(F)c[nH]c3=O)c2=O)c1Cl` [Example 36, 2,5-dichloro-3-((1-((5-fluoro-2-oxo-1,2-dihydropyridin-3-yl)methyl)-6-oxo-4-(trifluoromethyl)-1,6-dihydropyrimidin-5-yl)oxy)benzonitrile], the EC50 in experiment [1] came out at 0.369 µM; in “Viking EC50, 50% NHS”, 0.05 µM.
With `N#Cc1cc(Cl)cc(Oc2c(C(F)(F)F)ncn(Cc3cc(F)c[nH]c3=O)c2=O)c1F` [Example 37, 5-chloro-2-fluoro-3-((1-((5-fluoro-2-oxo-1,2-dihydropyridin-3-yl)methyl)-6-oxo-4-(trifluoromethyl)-1,6-dihydropyrimidin-5-yl)oxy)benzonitrile], the EC50 is 0.413 µM in experiment [1] and 0.0324 µM in “Viking EC50, 50% NHS”.
On to `Cc1c(C#N)cc(C(F)F)cc1Oc1c(C(F)(F)C(F)(F)F)ncn(Cc2cc(F)c[nH]c2=O)c1=O` [Example 38, 5-(difluoromethyl)-3-((1-((5-fluoro-2-oxo-1,2-dihydropyridin-3-yl)methyl)-6-oxo-4-(perfluoroethyl)-1,6-dihydropyrimidin-5-yl)oxy)-2-methylbenzonitrile], for which the EC50 worked out at 0.191 µM in experiment [1] and 0.0968 µM in the experiment “Viking EC50, 50% NHS”.
For the molecule `Cc1ccc(Cn2cnc(C(F)(F)C(F)F)c(Oc3cc(Cl)cc(C#N)c3F)c2=O)c(=O)[nH]1` [Example 39, 5-Chloro-2-Fluoro-3-((1-((6-Methyl-2-Oxo-1,2-Dihydropyridin-3-Yl)Methyl)-6-Oxo-4-(1,1,2,2-Tetrafluoroethyl)-1,6-Dihydropyrimidin-5-Yl)Oxy)Benzonitrile], the EC50 came to 0.162 µM in experiment [1] and 0.0335 µM in “Viking EC50, 50% NHS”.
The matching figures for `Cc1cc(C)c(Cn2cnc(C(F)(F)C(F)F)c(Oc3cc(C#N)cc(C(F)F)c3)c2=O)c(=O)[nH]1` [Example 40, 3-(difluoromethyl)-5-((1-((4,6-dimethyl-2-oxo-1,2-dihydropyridin-3-yl)methyl)-6-oxo-4-(1,1,2,2-tetrafluoroethyl)-1,6-dihydropyrimidin-5-yl)oxy)benzonitrile]: 0.283 µM and 0.0392 µM.
As for `Cc1cc(C)c(Cn2cnc(C(F)(F)CF)c(Oc3cc(C(F)F)cc(C#N)c3C)c2=O)c(=O)[nH]1` [Example 41, 5-(difluoromethyl)-3-((1-((4,6-dimethyl-2-oxo-1,2-dihydropyridin-3-yl)methyl)-6-oxo-4-(1,1,2-trifluoroethyl)-1,6-dihydropyrimidin-5-yl)oxy)-2-methylbenzonitrile], the EC50 turned out to be 0.283 µM in experiment [1] and 0.0598 µM in “Viking EC50, 50% NHS”.
`Cc1cc(C)c(Cn2cnc(C(F)(F)F)c(Oc3cc(C(F)F)cc(C#N)c3C)c2=O)c(=O)[nH]1` [Example 42, 5-(Difluoromethyl)-3-((1-((4,6-Dimethyl-2-Oxo-1,2-Dihydropyridin-3-Yl)Methyl)-6-Oxo-4-(Trifluoromethyl)-1,6-Dihydropyrimidin-5-Yl)Oxy)-2-Methylbenzonitrile]: the EC50 is 0.222 µM in experiment [1] and 0.0431 µM in “Viking EC50, 50% NHS”.

Source of the values: US20250214962A1, “PYRIDINONE DERIVATIVES AS SELECTIVE CYTOTOXIC AGENTS AGAINST HIV INFECTED CELLS” (Merck Sharp & Dohme LLC, priority 2019, published 2025).
